± gives the expanded uncertainty stated by the source.
Tests used:
[1] = for mass density: 101.33 kPa, Liquid, Vibrating tube method; for Triple point temperature: Crystal
[2] = Molar enthalpy of transition or fusion; conditions: Crystal; DSC

CCCC[n+]1cccc2ccccc21.O=S(=O)([N-]S(=O)(=O)C(F)(F)F)C(F)(F)F [1-butylquinolinium bis((trifluoromethyl)sulfonyl)amide]
[1]
Conditions	Triple point temperature [K]	mass density [kg/m3]
333.15 K	–	1416.26 ± 6.9
343.15 K	–	1407.38 ± 6.8
353.15 K	–	1398.52 ± 6.8
363.15 K	–	1389.69 ± 6.7
DTA	329.12 ± 0.5	–
visual observation	329.62 ± 1.1	–

Conditions	Molar enthalpy of transition or fusion [kcal/mol]
[2]	10.5 ± 0.287

— the NIST ThermoML archive (doi:10.1016/j.jct.2010.04.020)
